US10208071B2, “Use of agonists of formyl peptide receptor 2 for treating ocular inflammatory diseases” (Allergan, Inc., priority 2013, dated 2019)
Read-outs that look alike come from different tables or passages of the source.

Target: FPR2 (Homo sapiens (Human), UniProt P25090)
Test: FLIPR Ca+2 response, HEK-Gα16 cells stably expressing the human FPR2 receptor (Table 4)
Format: cell-based
Conditions: for FPR2 (efficacy): efficacy in parentheses
Description: FLIPR: HEK-Gα16 cells stably expressing the human FPR2 receptor was utilized. Cells were plated into 384-well poly-D-lysine coated plates at a density of 18,000 cells per well one day prior to use. The growth media was DMEM medium supplemented with 10% fetal bovine serum (FBS), 1% antibiotic-antimycotic, 50 μg/ml hygromycin, and 400 μg/ml geneticin. On the day of the experiment, the cells were washed twice with Hank's Balanced Salt Solution supplemented with 20 mM HEPES (HBSS/hepes buffer). The cells were then dye loaded with 2 μM Fluo-4 diluted in the HBSS/Hepes buffer and incubated at 37° C. for 40 minutes. Extracellular dye was removed by washing the cell plates four times prior to placing the plates in the FLIPR (Fluorometric Imaging Plate Reader, Molecular Devices). Ligands were diluted in HBSS/Hepes buffer and prepared in 384-well microplates. Data for Ca^+2 responses were obtained in relative fluorescence units.

Chain of FPR2 (P25090 whole entry): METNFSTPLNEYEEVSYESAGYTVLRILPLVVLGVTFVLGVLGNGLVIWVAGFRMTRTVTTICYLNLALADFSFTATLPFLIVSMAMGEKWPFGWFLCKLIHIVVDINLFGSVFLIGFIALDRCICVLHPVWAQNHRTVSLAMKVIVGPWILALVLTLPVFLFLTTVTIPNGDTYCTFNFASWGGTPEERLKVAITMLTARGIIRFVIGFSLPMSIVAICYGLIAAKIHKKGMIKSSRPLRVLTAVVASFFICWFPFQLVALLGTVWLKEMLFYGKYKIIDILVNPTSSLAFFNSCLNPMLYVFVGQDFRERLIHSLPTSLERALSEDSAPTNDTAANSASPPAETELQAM

`CC(C)C1(CC(=O)NCCC(=O)O)NC(=O)N(NC(=O)Nc2ccc(Br)cc2F)C1=O` (centres unmarked) [Compound 145, 3-({[-{[(4-bromo-2-fluorophenyl)carbamoyl]amino}-2,5-dioxo-4-(propan-2-yl)imidazolidin-4-yl]acetyl}amino)propanoic acid] was tested. Which EC50 did it give?
The EC50 was 1 nM.

And the “FPR2 (efficacy)” value?
The value was “nM (1.0)”.

What does the source list for `CC(C)C[C@H](NC(=O)Nc1ccc(I)cc1)C(=O)O` [Compound 121, (2S)-2-{[(4-iodophenyl)carbamoyl]amino}-4-methylpentanoic acid]?
EC50: 4 nM; FPR2 (efficacy): nM (0.93)

Which “FPR2 (efficacy)” value does the source give for `C[S+]([O-])c1ccc(NC(=O)Nc2ccc3c(c2)C(=O)N(CCCN)[C@@H](c2ccc(C#N)cc2)C3)cc1` (stereo partly drawn) [Compound 41, (+) 1-[(3R)-2-(3-aminopropyl)-3-(4-cyanophenyl)-1-oxo-1,2,3,4-tetrahydroisoquinolin-7-yl]-3-[4-(methylsulfinyl)phenyl]urea] here?
Its value is “nM (0.94)”.

For `NC(=O)C1C(C(=O)Nc2ccc(Br)cc2)C2CCC1C21CC1` (single isomer, unassigned; (-)) [Compound 45, (−) N-(4-bromophenyl)spiro[bicyclo[2.2.1]heptane-7,1′-cyclopropane]-2,3-dicarboxamide], which “FPR2 (efficacy)” value is on record?
The value was “nM (0.91)”.

Which “FPR2 (efficacy)” value does the source give for `CC1(C)C2CCC1C(C(=O)Nc1ccc(Br)cc1)C2C(=O)O` (centres unmarked) [Compound 21, 3-[(4-bromophenyl)carbamoyl]-7,7-dimethylbicyclo[2.2.1]heptane-2-carboxylic acid] here?
Its value is “nM (0.85)”.

For `CSc1ccc(NC(=O)Nc2ccc3c(c2)C(=O)N(CCc2c[nH]cn2)C(c2ccc(Cl)o2)C3)cc1` (centres unmarked) [Compound 27, 1-{3-(5-chlorofuran-2-yl)-2-[2-(1H-imidazol-4-yl)ethyl]-1-oxo-1,2,3,4-tetrahydroisoquinolin-7-yl}-3-[4-(methylsulfanyl)phenyl]urea], which “FPR2 (efficacy)” value is on record?
Its value is “nM (0.81)”.

With `CC(C)C[C@H](NC(=O)Nc1ccc(C(F)(F)F)cc1)C(=O)NCS(=O)(=O)O` [Compound 237, {[(2S)-4-methyl-2-({[4-(trifluoromethyl)phenyl]carbamoyl}amino)pentanoyl]amino} methanesulfonic acid] as the compound, how does the EC50 read?
Its EC50 is 1.9 nM.

What about the “FPR2 (efficacy)” value of the same compound?
The value was “nM (0.99)”.

What does the source list for `CC(C)C[C@H](NC(=O)Nc1ccc(Br)cc1)C(=O)NCC(C)(C)O` [Compound 93, (2S)-2-{[(4-bromophenyl)carbamoyl]amino}-N-(2-hydroxy-2-methylpropyl)-4-methylpentanamide]?
EC50: 2.5 nM; FPR2 (efficacy): nM (0.93)

How did the EC50 turn out when `CSc1ccc(NC(=O)N[C@@H](CC(C)C)C(=O)NCC(=O)O)cc1` [Compound 130, {[(2S)-4-methyl-2-({[4-(methylsulfanyl)phenyl]carbamoyl}amino)pentanoyl]amino} acetic acid] was run?
The EC50 was 3 nM.

And the “FPR2 (efficacy)” value?
The value was “nM (1.0)”.

For `O=C(Nc1ccc(Br)cc1)[C@@H]1C2CCC([C@@H]1C(=O)O)C21CC1` (stereo partly drawn) [Compound 44, (+) (2S,3R)-3-[(4-bromophenyl)carbamoyl]spiro[bicyclo[2.2.1]heptane-7,1′-cyclopropane]-2-carboxylic acid], which “FPR2 (efficacy)” value is on record?
Its value is “nM (0.98)”.

How did the EC50 turn out when `CCOP(=O)(CNC(=O)[C@H](Cc1ccccc1)NC(=O)Nc1ccc(Br)cc1)OCC` [Compound 118, diethyl ({[(2S)-2-{[(4-bromophenyl)carbamoyl]amino}-3-phenylpropanoyl]amino}methyl)phosphonate] was run?
Its EC50 is 16.1 nM.

And the “FPR2 (efficacy)” value?
The value was “nM (0.93)”.

For `CC(C)C[C@H](NC(=O)Nc1ccc(Br)cc1F)C(=O)NCC(N)=O` [Compound 84, (2S)-N-(2-amino-2-oxoethyl)-2-{[(4-bromo-2-fluorophenyl)carbamoyl]amino}-4-methylpentanamide], which EC50 is on record?
Its EC50 is 4.5 nM.

And the “FPR2 (efficacy)” value?
Its value is “nM (0.95)”.

For `CC(C)C[C@H](NC(=O)Nc1ccc(Br)cc1)C(=O)N[C@H](C)CO` [Compound 96, (2S)-2-{[(4-bromophenyl)carbamoyl]amino}-N-[(2R)-1-hydroxypropan-2-yl]-4-methylpentanamide], which “FPR2 (efficacy)” value is on record?
The value was “nM (1.0)”.

With `CC1(C)C2CCC1C(C(=O)Nc1ccc(I)cc1)C2C(N)=O` (centres unmarked) [Compound 35, N-(4-iodophenyl)-7,7-dimethylbicyclo[2.2.1]heptane-2,3-dicarboxamide] as the compound, how does the “FPR2 (efficacy)” value read?
The value was “nM (0.81)”.

With `CC(C)C[C@H](NC(=O)Nc1ccc(Br)cc1F)C(=O)NCC(=O)O` [Compound 7, {[(2S)-2-{[(4-bromo-2-fluorophenyl)carbamoyl]amino}-4-methylpentanoyl]amino}acetic acid] as the compound, how does the “FPR2 (efficacy)” value read?
Its value is “(1.0)”.

And the EC50 (unit inferred)?
Its EC50 is 3.57 nM.

How did the “FPR2 (efficacy)” value turn out when `CC(=O)CNC(=O)[C@H](CC(C)C)NC(=O)Nc1ccc(Br)cc1F` [Compound 85, (2S)-2-{[(4-bromo-2-fluorophenyl)carbamoyl]amino}-4-methyl-N-(2-oxopropyl)pentanamide] was run?
The value was “nM (0.99)”.

What does the source list for `CCC1(C(C)C)NC(=O)N(NC(=O)Nc2ccc(Br)cc2F)C1=O` (centres unmarked) [Compound 61, 1-(4-bromo-2-fluorophenyl)-3-[4-2,5-dioxo-4-(propan-2-yl)imidazolidin-1-yl]urea]?
EC50: 9.2 nM; FPR2 (efficacy): nM (0.97)

`CC(C)C[C@H](NC(=O)Nc1ccc(C(F)(F)F)cc1)C(=O)NCc1nnn[nH]1` [Compound 136, (2S)-4-methyl-N-(1H-tetrazol-5-ylmethyl)-2-({[4-(trifluoromethyl)phenyl]carbamoyl}amino)pentanamide] was tested. Which EC50 did it give?
The EC50 was 3.7 nM.

What about the “FPR2 (efficacy)” value of the same compound?
The value was “nM (0.96)”.

With `CC[C@H](C)[C@H](NC(=O)Nc1ccc(Br)cc1F)C(=O)NCC(N)=O` [Compound 62, (2S,3S)-N-(2-amino-2-oxoethyl)-2-{[(4-bromo-2-fluorophenyl)carbamoyl]amino}-3-methylpentanamide] as the compound, how does the EC50 read?
The EC50 was 10.3 nM.

And the “FPR2 (efficacy)” value?
The value was “nM (1.0)”.

Which results are given for `CSc1ccc(NC(=O)N[C@@H](CC(C)C)C(=O)O)cc1` [Compound 128, (2S)-4-methyl-2-({[4-(methylsulfanyl)phenyl]carbamoyl}amino)pentanoic acid]?
EC50: 16.8 nM; FPR2 (efficacy): nM (0.92)

What does the source list for `CCC[C@H](NC(=O)Nc1ccc(Br)cc1)C(=O)NCP(=O)(OCC)OCC` [Compound 117, diethyl ({[(2S)-2-{[(4-bromophenyl)carbamoyl]amino}pentanoyl]amino}methyl) phosphonate]?
EC50: 0.27 nM; FPR2 (efficacy): nM (1.0)

Which “FPR2 (efficacy)” value does the source give for `CCC1(CCc2ccccc2)NC(=O)N(NC(=O)Nc2ccc(Br)cc2)C1=O` (centres unmarked) [Compound 1, 1-(4-bromophenyl)-3-[4-ethyl-2,5-dioxo-4-(2-phenylethyl)imidazolidin-1-yl]urea] here?
Its value is “(0.96)”.

And the EC50 (unit inferred)?
The EC50 was 3 nM.

What does the source list for `CC1(CCc2ccc(F)cc2)NC(=O)N(NC(=O)Nc2ccc(Br)cc2)C1=O` (centres unmarked) [Compound 82, 1-(4-bromophenyl)-3-{4-[2-(4-fluorophenyl)ethyl]-4-methyl-2,5-dioxoimidazolidin-1-yl}urea]?
EC50: 16.3 nM; FPR2 (efficacy): nM (1.0)

Which results are given for `CCC1(CC)NC(=O)N(NC(=O)Nc2ccc(Br)cc2F)C1=O` [Compound 50, 1-(4-bromo-2-fluorophenyl)-3-(4,4-diethyl-2,5-dioxoimidazolidin-1-yl)urea]?
EC50: 15.7 nM; FPR2 (efficacy): nM (1.0)

`CC(C)NC(=O)C1C(C(=O)Nc2ccc(Br)cc2)C2CCC1C21CC1` (centres unmarked) [Compound 48, N-(4-bromophenyl)-N′-(propan-2-yl)spiro[bicyclo[2.2.1]heptane-7,1′-cyclopropane]-2,3-dicarboxamide] was tested. Which EC50 did it give?
Its EC50 is 6.7 nM.

What about the “FPR2 (efficacy)” value of the same compound?
The value was “nM (1.0)”.

With `CCNC(=O)C1C(C(=O)Nc2ccc(Br)cc2)C2CCC1C21CC1` (centres unmarked) [Compound 47, N-(4-bromophenyl)-N′-ethylspiro[bicyclo[2.2.1]heptane-7,1′-cyclopropane]-2,3-dicarboxamide] as the compound, how does the EC50 read?
Its EC50 is 9.3 nM.

What about the “FPR2 (efficacy)” value of the same compound?
The value was “nM (1.0)”.

How did the “FPR2 (efficacy)” value turn out when `CS(=O)(=O)c1ccc(NC(=O)Nc2ccc3c(c2)C(=O)N(CCc2c[nH]cn2)C(c2ccc(C#N)cc2)C3)cc1` (centres unmarked) [Compound 19, 1-{3-(4-cyanophenyl)-2-[2-(1H-imidazol-4-yl)ethyl]-1-oxo-1,2,3,4-tetrahydroisoquinolin-7-yl}-3-[4-(methylsulfonyl)phenyl]urea] was run?
Its value is “nM (1.00)”.

How did the EC50 turn out when `CCC[C@H](NC(=O)Nc1ccc(Br)cc1)C(=O)NCC(=O)OC(C)C` [Compound 73, propan-2-yl {[(2S)-2-{[(4-bromophenyl)carbamoyl]amino}pentanoyl]amino}acetate] was run?
The EC50 was 14.5 nM.

What about the “FPR2 (efficacy)” value of the same compound?
Its value is “nM (1.0)”.

What does the source list for `CC(C)C[C@H](NC(=O)Nc1ccc(Br)cc1)C(=O)N[C@H](C(N)=O)C(C)C` [Compound 92, (2S)-N-[(2S)-1-amino-3-methyl-1-oxobutan-2-yl]-2-{[(4-bromophenyl)carbamoyl]amino}-4-methylpentanamide]?
EC50: 5.8 nM; FPR2 (efficacy): nM (1.0)

How did the “FPR2 (efficacy)” value turn out when `CC(C)C[C@H](NC(=O)Nc1ccc(C(F)(F)F)cc1)C(=O)NCC(=O)O` [Compound 124, {[(2S)-4-methyl-2-({[4-(trifluoromethyl)phenyl]carbamoyl}amino)pentanoyl]amino}acetic acid] was run?
Its value is “nM (1.0)”.

What does the source list for `N#Cc1ccc(C2Cc3ccc(NC(=O)Nc4ccc(I)cc4)cc3C(=O)N2CCCN)cc1` (centres unmarked) [Compound 43, 1-[2-(3-aminopropyl)-3-(4-cyanophenyl)-1-oxo-1,2,3,4-tetrahydroisoquinolin-7-yl]-3-(4-iodophenyl)urea]?
EC50: 13.7 nM; FPR2 (efficacy): nM (0.94)

With `CSc1ccc(NC(=O)Nc2ccc3c(c2)C(=O)N(CCCN)C(c2ccc(C#N)cc2)C3)cc1` (centres unmarked) [Compound 16, 1-[2-(3-aminopropyl)-3-(4-cyanophenyl)-1-oxo-1,2,3,4-tetrahydroisoquinolin-7-yl]-3-[4-(methylsulfanyl)phenyl]urea] as the compound, how does the “FPR2 (efficacy)” value read?
Its value is “nM (0.70)”.
